Measurements as given in patent US10421740B2, “Pesticidally active heterocyclic derivatives with sulphur containing substituents” (SYNGENTA PARTICIPATIONS AG, priority 2016, dated 2019).

What was measured:
Format in all cases: in vivo
[1] = test system: Myzus persicae (Green Peach Aphid); test: Activity against Myzus persicae (green peach aphid): feeding/contact activity; details: foliar, 144 h, application rate 200 ppm, sunflower leaf discs, aphid population of mixed ages, 6 days after infestation
Description: Example B3: Activity Against Myzus persicae (Green Peach Aphid): Feeding/Contact Activity
Sunflower leaf discs were placed onto agar in a 24-well microtiter plate and sprayed with aqueous test solutions prepared from 10'000 ppm DMSO stock solutions. After drying, the leaf discs were infested with an aphid population of mixed ages. The samples were assessed for mortality 6 days after infestation.

[2] = test system: Plutella xylostella (Diamond Back Moth); test: Activity against Plutella xylostella (diamond back moth); details: 120 h, application rate 200 ppm, artificial diet, L2 larvae, 5 days after infestation, read-out: effect in at least one of the two categories (mortality or growth inhibition)
Description: Example B5: Activity Against Plutella xylostella (Diamond Back Moth)
(§1) 24-well microtiter plates with artificial diet were treated with aqueous test solutions prepared from 10'000 ppm DMSO stock solutions by pipetting. After drying, the plates were infested with L2 larvae (10 to 15 per well). The samples were assessed for mortality and growth inhibition in comparison to untreated samples 5 days after infestation.

[3] = test system: Euschistus heros (Neotropical Brown Stink Bug); test: Activity against Euschistus heros (neotropical brown stink bug); details: 120 h, application rate 200 ppm, soybean leaves, N2 nymphs, 5 days after infestation, read-out: effect in at least one of the two categories (mortality or growth inhibition)
Description: Example B9: Activity Against Euschistus heros (Neotropical Brown Stink Bug)
Soybean leaves on agar in 24-well microtiter plates were sprayed with aqueous test solutions prepared from 10'000 ppm DMSO stock solutions. After drying the leaves were infested with N2 nymphs. The samples were assessed for mortality and growth inhibition in comparison to untreated samples 5 days after infestation.

[4] = test system: Bemisia tabaci (Cotton White Fly); test: Activity against Bemisia tabaci (cotton white fly): feeding/contact activity; details: foliar, 144 h, application rate 200 ppm, cotton leaf discs, adult white flies, 6 days after incubation
Description: Example B1: Activity Against Bemisia tabaci (Cotton White Fly): Feeding/Contact Activity
Cotton leaf discs were placed on agar in 24-well microtiter plates and sprayed with aqueous test solutions prepared from 10'000 ppm DMSO stock solutions. After drying the leaf discs were infested with adult white flies. The samples were checked for mortality 6 days after incubation.

[5] = test system: Spodoptera littoralis (Egyptian Cotton Leaf Worm); test: Activity against Spodoptera littoralis (Egyptian cotton leaf worm), cotton leaf disc spray; details: foliar, 72 h, application rate 200 ppm, cotton leaf discs, L1 larvae, 3 days after infestation
Description: Example B8: Activity Against Spodoptera littoralis (Egyptian Cotton Leaf Worm)
Cotton leaf discs were placed onto agar in 24-well microtiter plates and sprayed with aqueous test solutions prepared from 10'000 ppm DMSO stock solutions. After drying the leaf discs were infested with five L1 larvae. The samples were assessed for mortality, anti-feeding effect, and growth inhibition in comparison to untreated samples 3 days after infestation. Control of Spodoptera littoralis by a test sample is given when at least one of the categories mortality, anti-feedant effect, and growth inhibition is higher than the untreated sample.

[6] = test system: Spodoptera littoralis (Egyptian Cotton Leaf Worm); test: Activity against Spodoptera littoralis (Egyptian cotton leaf worm), uptake via lettuce roots; details: 144 h, test rate 12.5 ppm, lettuce grown on treated agar, eggs, 6 days after infestation, read-out: effect in at least one of the three categories (mortality, anti-feeding, or growth inhibition)
Excerpt: Example B6: Activity Against Spodoptera littoralis (Egyptian Cotton Leaf Worm)
Test compounds were applied by pipette from 10'000 ppm DMSO stock solutions into 24-well plates and mixed with agar. Lettuce seeds were placed onto the agar and the multi well plate was closed by another plate which contained also agar. After 7 days the compound was absorbed by the roots and the lettuce grew into the lid plate. The lettuce leaves were then cut off into the lid plate. Spodoptera eggs were pipetted through a plastic stencil onto a humid gel blotting paper and the lid plate was closed with it. The samples were assessed for mortality, anti-feedant effect and growth inhibition in comparison to untreated samples 6 days after infestation.

[7] = test system: Diabrotica balteata (Corn Root Worm); test: Activity against Diabrotica balteata (corn root worm); details: 96 h, application rate 200 ppm, maize sprouts, L2 larvae, 4 days after infestation, read-out: effect in at least one of the two categories (mortality or growth inhibition)
Description: Example B2: Activity Against Diabrotica balteata (Corn Root Worm)
as §1, with “Maize sprouts placed onto an agar layer in 24-well” for “24-well”, “plates” for “plates with artificial diet”, “spraying.” for “pipetting.”, “(6” for “(10”, “10” for “15”, “4” for “5”

[8] = test system: Anopheles stephensi (Indian Malaria Mosquito); test: Activity against Anopheles stephensi (Indian malaria mosquito); details: 200 ppm in ethanol, dry deposit; adult females; after 48 h and/or 24 h
Description: Example B10: Activity Against Anopheles stephensi (Indian Malaria Mosquito)
Test solutions, at an application rate of 200 ppm in ethanol, were applied to 12 well tissue culture plates. Once the deposits were dry, five, two to five day old adult female Anopheles stephensi were added to each well, and sustained with a 10% sucrose solution in a cotton wool plug. Assessment of knockdown was made one hour after introduction, and mortality was assessed at 24 and 48 hours after introduction.

[9] = test system: Myzus persicae (Green Peach Aphid); test: Activity against Myzus persicae (green peach aphid): systemic activity; details: 144 h, test rate 24 ppm, roots of pea seedlings in test solution, 6 days
Description: Example B4: Activity Against Myzus persicae (Green Peach Aphid): Systemic Activity
Roots of pea seedlings infested with an aphid population of mixed ages were placed directly into aqueous test solutions prepared from 10'000 DMSO stock solutions. The samples were assessed for mortality 6 days after placing seedlings into test solutions.

Compound | mortality at 200 ppm [1] [%] | percent control (mortality or growth inhibition) at 200 ppm [2] [%] | effect (mortality or growth inhibition) at 200 ppm [3] [%] | mortality at 200 ppm [4] [%] | percent control (mortality, anti-feedant effect or growth inhibition) at 200 ppm [5] [%] | percent with effect (mortality, anti-feeding or growth inhibition) at 12.5 ppm [6] [%] | percent effect (mortality or growth inhibition) at 200 ppm [7] [%] | control of Anopheles stephensi [8] | mortality at 24 ppm [9] [%]
CCS(=O)(=O)c1cc2sc(C(F)(F)F)nc2cc1-c1nnc(-c2cc(C(F)(F)F)ccn2)n1C [Compound A8, 6-ethylsulfonyl-5-[4-methyl-5-[4-(trifluoromethyl)-2-pyridyl]-1,2,4-triazol-3-yl]-2-(trifluoromethyl)-1,3-benzothiazole] | ≥ 80 | ≥ 80 | ≥ 80 | ≥ 80 | ≥ 80 | ≥ 80 | ≥ 80 |  | 
CCS(=O)(=O)c1cc2c(cc1-c1nnc(-c3cc(C(F)(F)F)ccn3)n1C)nc(C(F)(F)F)n2C [Compound A2, 6-ethylsulfonyl-1-methyl-5-[4-methyl-5-[4-(trifluoromethyl)-2-pyridyl]-1,2,4-triazol-3-yl]-2-(trifluoromethyl)benzimidazole] | ≥ 80 | ≥ 80 |  | ≥ 80 | ≥ 80 | ≥ 80 | ≥ 80 | at least 80% | ≥ 80
